{"source": "patent US4863748A", "about": "“Dietary products and uses comprising methylsulfonylmethane” (priority 1986, dated 1989)", "key": {"[1]": {"assay": "Excretion of methylsulfonylmethane", "type": "in vivo", "description": "Orally ingested methylsulfonylmethane is stored to some degree in various organs, presumably banked for future sulfur needs of the body. The skin excretion route is unusual, particularly since about one-third of a given oral dose can be found in the perspiration. Like NaCl, excretion depends somewhat on perspiration rate. The accumulation in and excretion of methylsulfonylmethane from the skin is believed to account for its cosmetic effect, viz., more youthful appearing, pliable, blemish-reduced skin. Chemical and radiolabeled sulfur (35-S) assays can be used to determine the extent to which important biomolecules as heparin, insulin, co-enzyme A and other --SH bearing enzymes, biotin, methionine enkaphalin, human growth factor, hemoglobin, calcitonin, fibrinogen, muscle protein and other compounds derive their thiol (--S--) and disulfide (--S--S--) groups from methylsulfonylmethane and the possible preference of methylsulfonylmethane over S-content amino acids as the donor with such synthesis."}, "[2]": {"tested_on": "nail growth", "assay": "Nail growth in dogs (Example 6)", "type": "in vivo, dog (female labradors)", "details": "5% in drinking water, 45 days", "description": "Rate of nail growth is an indication of the overall health of an animal. To determine the effect of methylsulfonylmethane on nail growth, two litter mate female labradors, age 8.5 months, were maintained in side by side straw bedded cages. Before any testing, the front paws of each dog were embedded in partially set plaster of paris, allowing the animals to exert full body weight, thereby obtaining good clear impressions of paw pads and nail length.\nEach dog was fed Purina dog chow and water ad lib for 45 days. One of the dogs, (Animal A) had no ration change and the other (Animal B) was supplied only with water containing 5% of methylsulfonylmethane dissolved therein. After 45 days, plaster impressions of the front paws of each dog were again taken. Once the plaster had fully hardened the pre- and post-testing castings of each animal were compared. The straw bedding protected both animals from normal nail wear. On visual examination, the nails of Animal B, the animal receiving methylsulfonylmethane in its water, were obviously longer. Upon comparing the castings it was seen that Animal B had nails that averaged about 1/8 inch greater length than those of Animal A."}, "[3]": {"tested_on": "coat", "assay": "Coat quality of guinea pigs (Example 8)", "type": "in vivo", "details": "2 wt. % in water, 28 days", "description": "Ten 4-week old guinea pigs were housed in individual metal cages in a standard temperature room with a 12-hour light/dark cycle and acclimated over a 5-day period of feeding Purina guinea pig chow with water ad lib.\nOn day six, five animals were marked on the belly with red and the other five with blue water-insoluble ink. The marks were not visible when the animals were observed from above. Each animal after marking was returned to its cage and a corresponding red or blue tape affixed to the animal's watering bottle. The red marked bottles were maintained with tap water and the blue marked bottles were filled with tap water containing 2 wt. % methylsulfonylmethane. During a 28 day period, the animals were fed and allowed access to their water or water+2% methylsulfonylmethane, respectively, ad lib. On day 28, the animals were placed in common confinement on a well lighted table. Four individuals, totally unfamiliar with the test and its purpose were asked to evaluate the coat of each animal. Animals at each evaluation were removed by the evaluator and placed into one of two groups based on better or poorer quality of the animal's coat without seeing the color on the animal's belly."}, "[4]": {"tested_on": "stress death", "assay": "Stress death in fish (Example 10)", "type": "in vivo, Goldfish", "details": "2% by weight in feed, 25 fish; control 11 deaths", "experimental": "62 Goldfish, about 2 inches long, were divided into two 31 population lots and placed in acclimated aquariums (2) maintained at 50° F. On receipt of the fish, two small one gallon aquariums were filled with tap water and stablized for 5 days by aeration with an aerator/filter combination connected to a common aquarium air pump. Air delivery during the test period was standardized at 100 ml of air per minute. From a 1 oz. package of \"Wardleys\" goldfish food two 10 gram samples were removed. One sample was untreated and the other was moistened with about one ml of pure ethanol containing 0.2 gram methylsulfonylmethane in solution. The feed absorbed all the methylsulfonylmethane (the lot after air drying for 48 hours weighed 10.2 grams). Both feeds were pulverized to a coarse powder suitable for feeding small fish.\nThe 31 fish in each of the two holding aquariums were identified as batch A and batch B. During the acclimatization and test periods the batch A fish were fed 0.5 gram of untreated \"Wardleys\" food once daily. Batch B fish were fed 0.5 gram of the feed containing the methylsulfonylmethane during the acclimatization and test periods. Neither batch A nor B consumed all of the feed as some eventually collected in the fiberglass filter. However, most of each feeding was consumed in the first 5-10 minutes after delivery. […]"}, "[5]": {"tested_on": "Aspergillus niger", "assay": "Antifungal activity", "type": "cell-based", "details": "500 ppm", "description": "(§1) While not as potent or toxic to microbial populations as specific drug agents, by reason of its extremely low host systemic toxicity, methylsulfonylmethane contrasts sharply with present antiinfective therapeutants and methodology. It is doubtful if chemical resistance will develop with infective agents controlled by high, but safe, systemic levels of methylsulfonylmethane."}, "[6]": {"tested_on": "Phytophthora cinnamomi", "assay": "Antifungal activity", "type": "cell-based", "details": "500 ppm", "description": "as §1"}, "[7]": {"tested_on": "Sclerotium rolfsii", "assay": "Antifungal activity", "type": "cell-based", "details": "500 ppm", "description": "as §1"}, "[8]": {"tested_on": "platelet count", "assay": "Low platelet count in lupus erythematosus (Example 22)", "type": "in vivo, human", "details": "1.5 gm/day in 3 doses, 2-year period", "description": "Methylsulfonylmethane administered orally raised the platelet count of an adult with lupus erythematosus from 84,000 (after prednisone therapy) to 200,000 over a 2-year period (1.5 gm/day in 3 doses)."}, "[9]": {"tested_on": "arthritis", "assay": "Canine arthritis and other sources of pain (Example 30)", "type": "in vivo, dog", "description": "In each case the methylsulfonylmethane was admixed with the animal's food just prior to feeding.\nThis animal, although owned by a veterinarian, had not responded to a variety of therapeutic regimens over the previous 12 months. Methylsulfonylmethane was given to this dog in its food at a level of 1.5 grams b.i.d. X 1 month.\nIt was mobile but walked with obvious difficulty and discomfort. The animals was refractory to both cortisone and phenylbutazone.\nThe animal had not responded to either cortisone nor phenylbutazone and its condition was deteriorating rapidly. Methylsulfonylmethane was included in its diet at 1 gm/day b.i.d. After one week, the dog appeared to be pain-free."}}, "data": [{"smiles": "CS(C)(=O)=O", "note": "[methylsulfonylmethane]", "values": [{"measurement": "rate of excretion", "setting": "[1]; i.v. administration", "value": "very rapidly excreted"}, {"measurement": "excretion of excess amounts (feces, renal pathway, skin)", "setting": "[1]; in vivo", "value": "excreted unchanged"}, {"measurement": "portion of a given oral dose found in the perspiration", "setting": "[1]; oral", "value": "about one-third"}, {"measurement": "greater average nail length vs Animal A", "setting": "[2]", "value": "about 1/8"}, {"measurement": "animals with blue belly mark selected as superior by fourth evaluator", "setting": "[3]", "value": "three"}, {"measurement": "evaluators selecting the five treated animals as having superior coats", "setting": "[3]", "value": "Three of the four evaluators"}, {"measurement": "deaths in aquarium by day ten", "setting": "[4]", "value": "one"}, {"measurement": "antiparasitic (antifungal) activity", "setting": "[5]", "value": "good antiparasitic activity"}, {"measurement": "antiparasitic (antifungal) activity", "setting": "[6]", "value": "good antiparasitic activity"}, {"measurement": "antiparasitic (antifungal) activity", "setting": "[7]", "value": "good antiparasitic activity"}, {"measurement": "platelet count", "setting": "[8]", "value": "200,000"}, {"measurement": "benefit, Dog A", "setting": "[9]; Dog A, 0.5 g/day b.i.d., 7 days", "value": "without apparent benefit"}, {"measurement": "time to free mobility without evident discomfort nor ataxia, Dog A", "setting": "[9]; Dog A, 1.5 g/day b.i.d.", "value": "≤ 10", "unit": "days"}, {"measurement": "benefit, Dog B", "setting": "[9]; Dog B, 1.5 grams b.i.d. X 1 month", "value": "no apparent benefit"}, {"measurement": "mobility over the first month, Dog C", "setting": "[9]; Dog C, 0.5 grams b.i.d.", "value": "gradual improvement"}, {"measurement": "musculoskeletal restriction and discomfort in third month, Dog C", "setting": "[9]; Dog C, 0.5 grams b.i.d.", "value": "neither musculoskelatal restriction nor discomfort"}, {"measurement": "pain after one week, Dog D", "setting": "[9]; Dog D, 1 gm/day b.i.d.", "value": "pain-free"}, {"measurement": "state at over six months, Dog D", "setting": "[9]; Dog D, 1 gm/day b.i.d.", "value": "apparently healthy and frisky, requiring no medication"}]}]}
